Reference: US20250059139A1, “COMPOUNDS FOR TREATMENT OF CANCER” (THE JOHNS HOPKINS UNIVERSITY, priority 2021, published 2025)

Key:
[1] = target: T1, Human Aryl Hydrocarbon Receptor (AHR) (Homo sapiens, UniProt P35869); experiment: Human AHR reporter assay (cell-based  luciferase reporter gene assay); details: n = 4 independent assays/analog; read-out: AHR Agonist Response [EC50] (nM +/−SD)
T1 construct: purchased Indigo Biosciences IB06001
T1 sequence (P35869 11-848): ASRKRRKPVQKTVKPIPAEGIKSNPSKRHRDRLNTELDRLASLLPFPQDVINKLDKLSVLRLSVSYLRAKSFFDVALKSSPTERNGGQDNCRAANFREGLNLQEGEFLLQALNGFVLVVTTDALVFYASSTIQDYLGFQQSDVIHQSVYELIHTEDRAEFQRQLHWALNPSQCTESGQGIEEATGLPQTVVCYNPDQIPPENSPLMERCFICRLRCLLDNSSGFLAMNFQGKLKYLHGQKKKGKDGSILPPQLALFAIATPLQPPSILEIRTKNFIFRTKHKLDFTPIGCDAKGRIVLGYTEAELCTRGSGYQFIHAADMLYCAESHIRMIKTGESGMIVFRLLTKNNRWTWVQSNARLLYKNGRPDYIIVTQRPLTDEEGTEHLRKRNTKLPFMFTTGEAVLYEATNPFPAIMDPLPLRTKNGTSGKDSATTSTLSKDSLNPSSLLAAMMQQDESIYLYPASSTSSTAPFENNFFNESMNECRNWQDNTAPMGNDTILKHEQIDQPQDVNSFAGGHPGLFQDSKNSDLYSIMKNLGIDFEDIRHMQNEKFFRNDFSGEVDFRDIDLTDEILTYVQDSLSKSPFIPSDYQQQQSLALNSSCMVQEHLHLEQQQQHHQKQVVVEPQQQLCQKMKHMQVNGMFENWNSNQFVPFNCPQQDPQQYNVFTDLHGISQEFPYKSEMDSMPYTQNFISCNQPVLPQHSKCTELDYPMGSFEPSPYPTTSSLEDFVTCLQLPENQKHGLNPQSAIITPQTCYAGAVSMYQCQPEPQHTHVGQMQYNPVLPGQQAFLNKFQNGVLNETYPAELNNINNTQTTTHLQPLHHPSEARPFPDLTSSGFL

[2] = tested on: CWR22-RH human prostate cancer PDXs; experiment: In vivo growth of CWR22-RH xenografts in castrate NSG male mice; details: for CWR22-RH Tumor Growth (% inhibition +/− SD): castrate mice treated orally over a 3 week period, 10 mg/kg/d, n = 5/group; for growth inhibitor (GI) activity on CWR22-RH xenografts (SAR summary): in vivo
Description: Prostate Cancer Models. The source, history, and characteristics of the human prostate cancer cell lines and PDXs used, as well as cell culture conditions for their in vitro maintenance and the in vivo protocol for xenograft growth in triple immune-deficient NSG (i.e. NOD.Cg-PrkdcScidIl2rgtmlWji/Szj), adult (>8 week old) male mice obtained from the Sidney Kimmel Comprehensive Cancer Center (SKCCC) Animal Core Facility are described previously (Isaacs 2013; Brennen et al. JCI Insight. 2021, 6(8):e146827; Zhu et al. Oncogene 2020, 39(45): 6935-6949). Similar information concerning the TRAMP-C2 and B6CaP mouse prostate cancers originating in a C57BL/6J male mice are described previously (Foster et al. Cancer Res. 1997, 57: 3325-3330; Simons et al. Oncotarget. 2019, 10(64):6845-6854). In vitro growth curves were determined as described (Isaacs 2013). In vivo growth response to oral daily TasQ (10 mg/kg/d) of TRAMP-C2 mouse prostate cancers was evaluated in C57BL/6J syngeneic wild type vs. NOX-2 vs. iNOS null male mice obtained from Jackson Laboratory (Bar Harbor, ME). Growth response to oral daily TasQ (10 mg/kg/d) of TRAMP-C2 and B6CaP mouse prostate cancers was also evaluated in S100A9 null C57BL′6J male mice obtained from Dmitry Gabrilovich (Wistar Institute). All lines were mycoplasma negative using the MycoSensor PCR Assay kit (Agilent Technologies) and genetically authenticated within the last 6 months using short tandem repeat profiling conducted by the Johns Hopkins Genetic Resource Core Facility. In vitro growth curves were determined as described (Isaacs 2013). Growth response to daily oral TasQ vs. ESATA-20 (both at 10 mg/kg/d) of Myc-CaP-CR mouse prostate cancer was evaluated in syngeneic FVB/NJ castrate male mice from Jackson Laboratory. Animal studies were conducted according to animal protocols approved by Johns Hopkins Animal Care and Use Committee. Tumor volume measurements were as described previously (id.). In vivo experiments were repeated multiple independent times for each model used with 3-5 mice per treatment grouping.
(§1) Oral Drug treatment. TasQ at the indicated dose was initially dissolved with equal molar 1 N sodium hydroxide. This solution was diluted with sterile water and the mixture stirred for 1 hr. The pH was then adjusted with 1 N HCl to 8.9 and 200 μL given daily via oral gavage.
Due to these combined effects, maximal growth inhibition of CWR22-RH, a castration-resistant prostate cancer patient-derived xenograft (PDX), is obtained as maintenance therapy with oral daily dosing of ≥5 mg/kg/d (FIG. 1). […] Previous studies documented that in vitro treatment of human prostate cancer cells (LNCaP) with 1-10 μM TasQ rapidly (i.e., ≤1 day) induces the transcription of a series of AHR target genes (e.g., Cyp1a1, Cyp1b1, AHRR, TPARP, GDF15) (Olsson 2010). […]

thymus = experiment: AHR agonist induced thymus regression in FVB male mice; format: in vivo, mouse
Experimental: To evaluate AHR agonist induced thymus regression, groups of five 4-week old FVB male mice from Jackson Laboratory were treated with either vehicle, Linomide, TasQ, or its analogs daily by orally gavage for 2 weeks and then the thymus removed and weighted.
as §1
This means that in the clinical setting, dose-escalation above 1 mg/d of TasQ as needed to reach this >2 μM blood level for optimal anti-cancer efficacy will also enhance unwanted off-target AHR induction. Therefore, a medicinal chemical approach was undertaken to identify third generation quinoline-3-carboxamide analogs with increased HDAC4 inhibition, but with reduced AHR agonism. The approach taken is based upon the earlier SPR analysis documenting that TasQ linked to the surface chip via its aniline-N is a potent binder of HDAC4. Thus, a series of quinoline-3-carboxamide analogs were synthesized focusing upon adduct changes at the aniline-N. These analogs were synthesized as described in Example 1, and were initially screened for their AHR agonist activity using the in vitro human cell-based ARE-driven luciferase reporter gene assay (Table 3).

[3] = tested on: LvCaP-3 human prostate cancer PDXs; experiment: In vivo growth of LvCaP-3 xenografts in castrate hosts; details: daily oral 10 mg/kg
Description: Prostate Cancer Models. The source, history, and characteristics of the human prostate cancer cell lines and PDXs used, as well as cell culture conditions for their in vitro maintenance and the in vivo protocol for xenograft growth in triple immune-deficient NSG (i.e. NOD.Cg-PrkdcScidIl2rgtmlWji/Szj), adult (>8 week old) male mice obtained from the Sidney Kimmel Comprehensive Cancer Center (SKCCC) Animal Core Facility are described previously (Isaacs 2013; Brennen et al. JCI Insight. 2021, 6(8):e146827; Zhu et al. Oncogene 2020, 39(45): 6935-6949). […] In vitro growth curves were determined as described (Isaacs 2013). In vivo growth response to oral daily TasQ (10 mg/kg/d) of TRAMP-C2 mouse prostate cancers was evaluated in C57BL/6J syngeneic wild type vs. NOX-2 vs. iNOS null male mice obtained from Jackson Laboratory (Bar Harbor, ME). Growth response to oral daily TasQ (10 mg/kg/d) of TRAMP-C2 and B6CaP mouse prostate cancers was also evaluated in S100A9 null C57BL′6J male mice obtained from Dmitry Gabrilovich (Wistar Institute). […] In vitro growth curves were determined as described (Isaacs 2013). Growth response to daily oral TasQ vs. ESATA-20 (both at 10 mg/kg/d) of Myc-CaP-CR mouse prostate cancer was evaluated in syngeneic FVB/NJ castrate male mice from Jackson Laboratory. […]

fl-HDAC4 (wild-type) = target: T2, fl-HDAC4 (wild-type) (Homo sapiens, UniProt P56524); experiment: SPR binding analysis TasQ / fl-HDAC4; details: compound at >30 μM in solution, Zn2+ present
T2 construct: Full-length (fl) [A.A. 1-1082] recombinant human histone deacetylase 4 (rhHDAC4) protein; FLAG (N); GST (given as 'with or without'); made in house; host or cells: HEK293-T
T2 sequence (P56524 whole entry): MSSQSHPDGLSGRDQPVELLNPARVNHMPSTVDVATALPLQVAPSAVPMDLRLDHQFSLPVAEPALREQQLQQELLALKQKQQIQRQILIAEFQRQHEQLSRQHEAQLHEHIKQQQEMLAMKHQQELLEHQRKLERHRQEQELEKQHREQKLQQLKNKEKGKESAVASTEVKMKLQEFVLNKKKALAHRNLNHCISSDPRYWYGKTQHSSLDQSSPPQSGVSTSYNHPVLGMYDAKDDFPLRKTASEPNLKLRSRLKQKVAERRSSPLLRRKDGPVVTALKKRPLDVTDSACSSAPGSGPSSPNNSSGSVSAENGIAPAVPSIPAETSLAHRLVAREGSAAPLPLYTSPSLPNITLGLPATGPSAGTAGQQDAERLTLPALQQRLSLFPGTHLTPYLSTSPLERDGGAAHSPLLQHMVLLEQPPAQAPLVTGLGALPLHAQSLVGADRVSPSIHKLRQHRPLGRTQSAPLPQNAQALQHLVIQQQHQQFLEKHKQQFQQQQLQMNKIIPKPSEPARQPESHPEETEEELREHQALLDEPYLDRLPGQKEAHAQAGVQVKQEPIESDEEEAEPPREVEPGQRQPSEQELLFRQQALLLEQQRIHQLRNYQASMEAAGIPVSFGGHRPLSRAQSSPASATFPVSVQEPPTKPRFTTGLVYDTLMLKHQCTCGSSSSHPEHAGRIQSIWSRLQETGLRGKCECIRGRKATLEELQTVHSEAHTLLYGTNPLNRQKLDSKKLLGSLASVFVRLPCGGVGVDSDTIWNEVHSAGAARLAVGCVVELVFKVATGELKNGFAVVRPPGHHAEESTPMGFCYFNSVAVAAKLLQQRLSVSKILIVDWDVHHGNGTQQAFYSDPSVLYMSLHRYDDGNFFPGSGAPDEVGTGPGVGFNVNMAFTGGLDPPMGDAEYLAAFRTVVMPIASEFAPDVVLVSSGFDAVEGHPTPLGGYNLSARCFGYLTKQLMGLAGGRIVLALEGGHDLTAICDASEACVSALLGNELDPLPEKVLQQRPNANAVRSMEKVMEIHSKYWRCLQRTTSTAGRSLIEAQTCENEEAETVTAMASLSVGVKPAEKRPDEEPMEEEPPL
Experimental: Surface Plasmon Resonance (SPR) Binding Analysis. SPR analysis was performed on the Biacore 3000™ system using CM5 sensor chips, certified buffers (HBS-P—10 mM HEPES, 0.15 M NaCl, pH 7.4, containing 0.005% v/v Surfactant P; HBS-EP-HBS-P with 3 mM EDTA) and reagents for immobilization and surface regeneration from Biacore, GE Healthcare, Uppsala Sweden. Evaluation of sensorgrams was performed using the BIA-evaluation Software version 4.1 and GraphPad Prism 4. Buffer of protein reagents were changed to HBS-P on Zeba spin desalting columns (Thermo Scientific) prior to being used in SPR analysis (Isaacs 2013).
A. Binding of wild-type and mutant forms of HDAC4 to immobilized TasQ. TasQ (ABR-215050; mol wt 406.4) was dissolved as a 40 mM solution in water with 1.5 equivalents of NaOH. TasQ with an amino-linker [i.e. —(CH2)2O(CH2)2—NH2](ABR-225180) in amide nitrogen position was used for amine coupling on to a Biacore CM5 sensor chip. A 1 mg/mL solution of ABR-225180 in HBS-P buffer was prepared and immobilized on a CM5 chip by injection at a flow rate of 5 or 10 μL/min until a stable response level was reached. Interaction of various HDAC4 forms with immobilized TasQ was studied by injection over this surface in HBS-P buffer containing 10 or 20 μM ZnCl2. Bound HDAC4 was removed by a pulse of 3 mM EDTA in HBS-P or 0.5 to 6.25 mM NaOH in water. In a second series of experiments, the ability of TasQ in solution to displace this binding was studied by pre-incubation of HDAC4 with TasQ as competitor.
B. Binding of TasQ to immobilized HDAC4 and NCoR1. Different variants of HDAC4 (full-length wild-type and mutant forms and the truncated protein) and full-length NCoR1 were immobilized on a CM5 chip using random amine coupling. Briefly, proteins were dissolved in 10 mM sodium acetate buffer at pH 5.0 or 5.5 and immobilized to the aimed level using the standard protocol from GE Healthcare. Serially diluted TasQ in HBS-P buffer with 10 or 20 μM Zn was injected (for 2 or 3 min at a flow rate of 30 μl/min) either directly or after a 1st injection of 1 mM DTT to reduce cysteines in the zinc conformation site in HDAC4. Regeneration was made with a short pulse of HBS-EP.
To evaluate the conformational requirements for TasQ's binding to HDAC4, surface plasmon resonance (SPR) analysis was utilized. To maximize conformational flexibility, TasQ is immobilized onto the surface of a Biacore CM5 sensor chip via an amino-linker [i.e. —(CH2)2—O—(CH2)2—NH2] in its amide nitrogen position.
By comparison, Linomide even at >30 μM in solution binds only 10-15% of the immobilized fl-HDAC4 protein despite the presence of Zn^+2 (FIG. 14). […] The fact that the KD for binding of soluble TasQ to immobilized fl-HDAC4 is higher than the KD for binding of soluble fl-HDAC4 with immobilized TasQ is predictable. This is because the conformational dynamics of fl-HDAC4 protein immobilized on the chip are more restrictive due to the multiple random amine coupling than the conformational dynamics of TasQ immobilized via a single amino-linker.
To address this possibility, a competitive binding assay was developed based upon the ability of TasQ in solution to compete with immobilized TasQ on the SPR-chip for binding to fl-HDAC4.

mCRPC patients = details: human, in vivo; cited from earlier work

| EC50 [1] [nM] | Compound | CWR22-RH Tumor Growth (% inhibition +/− SD) [2] | growth inhibitor (GI) activity on CWR22-RH xenografts (SAR summary) [2] | other results |
| --- | --- | --- | --- | --- |
| 50 | CCCCCCCN(C(=O)c1c(O)c2c(OC)cccc2n(C)c1=O)c1ccc(C(F)(F)F)cc1 [ESATA-11] |  |  |  |
| 1300 | COc1cccc2c1c(O)c(C(=O)N(c1ccccc1)C1CCCCC1)c(=O)n2C [ESATA-28] | <10% |  |  |
| 300 | COc1cccc2c1CC(C(=O)N(C)c1ccc(C(F)(F)F)cc1)C(=O)N2C (stereo not shown) [ESATA-5] |  |  |  |
|  | c1ccc2c(c1)cc1ccc3cccc4ccc2c1c34 [Benzo[α]pyrene, benzo[a]pyrene] | <10% |  | thymus weight (thymus; 10 mg/kg/d oral for 14 days): 27 ± 8 mg; Thymus Regression (% decrease weight +/− SD) (thymus; mice treated orally for 2 weeks, 10 mg/kg/d, n = 5/group): 51 +/− 7%; inhibition of growth of LvCaP-3 xenografts at the end of study [3]: completely lacks therapeutic efficacy |
| > 100000 | COC(=O)c1c(O)c2c(OC)cccc2n(C)c1=O [ESATA-2] |  | no GI activity |  |
| 0.5 | COc1cccc2c1c(O)c(C(=O)Nc1ccc(C(F)(F)F)cc1)c(=O)n2C [ESATA-4] | 86 +/− 9% | high GI activity |  |
|  | CN(C(=O)c1c(O)c2ccccc2n(C)c1=O)c1ccccc1 [Linomide, roquinimex] |  |  | fraction of the immobilized fl-HDAC4 protein bound (fl-HDAC4 (wild-type)): 10-15%; adverse events in Phase III clinical trials (mCRPC patients): several cases of pericarditis and neuropathy |
| 850 | COc1cccc2c1c(O)c(C(=O)N(c1ccccc1)C(C)C)c(=O)n2C [ESATA-27] | <10% |  |  |
| > 50000 | COc1cccc2c1c(OCCNC(=O)OC(C)(C)C)c(C(=O)N(c1ccc(C(F)(F)F)cc1)C1CCCCC1)c(=O)n2C [ESATA-26] | <10% | no GI activity |  |
| 10500 | CCOc1c(C(=O)N(c2ccc(C(F)(F)F)cc2)C2CCCCC2)c(=O)n(C)c2cccc(OC)c12 [ESATA-25] | <10% | no GI activity |  |
| > 50000 | C[C@]12CC[C@H](O)CC1=CC[C@@H]1[C@@H]2CC[C@]2(C)C(c3cccnc3)=CC[C@@H]12 [Abiraterone] | <10% |  |  |
| 12000 | COc1cccc2c1c(O)c(C(=O)N(c1ccc(C(F)(F)F)cc1)C1CCC(C(F)(F)F)CC1)c(=O)n2C (stereo not shown) [ESATA-22] | <10% | no GI activity |  |
| 10700 | COc1cccc2c1c(O)c(C(=O)N(Cc1ccccc1)c1ccc(C(F)(F)F)cc1)c(=O)n2C [ESATA-18] | 50 +/− 18% |  |  |
| 1100 | COc1cccc2c1c(O)c(C(=O)N(CCOCc1ccccc1)c1ccc(C(F)(F)F)cc1)c(=O)n2C [ESATA-14] | <10% | no GI activity |  |
| 800 | COc1cccc2c1c(O)c(C(=O)N/N=C/c1ccc(C(F)(F)F)cc1)c(=O)n2C [ESATA-24] |  |  |  |
| 1400 | COc1cccc2c1c(O)c(C(=O)N(c1ccc(C(F)(F)F)cc1)C(C)C)c(=O)n2C [ESATA-30] | <10% | no GI activity |  |
